The text below walks through data of PubChem BioAssay AID1355 (Sanford-Burnham Center for Chemical Genomics, 2008).

Each structure is given as a SMILES string. Calls of active or inactive are those of the source.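 The calls were made as follows: active = survival at least 30 percentage points above the stressed untreated control at any dose of the stressor; inactive = the rest.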

In this experiment the test system is SW-1 melanoma, thapsigargin-induced death, ATPlite luminescence, 24 h. The experiment can be described thus: ER stress cell death suppression in melanoma – SW-1 melanoma, ATP content luminescence, SAR follow-up (AID 1355). The settings on record: at 25 µM, stronger effect = higher value.
[1] abbreviates: measured here: thapsigargin 7.5 uM.
[2] abbreviates: measured here: thapsigargin 15 uM.

For `CCOc1cccc(C2Nc3ccccc3NC3=C2C(=O)CC(c2ccc(OC)cc2)C3)c1` (stereo not drawn), the survival is 33% (inactive). This molecule also had a survival under setting [1] of 75%. This molecule showed a survival under setting [2] of 3%.
For `CCCOc1ccc(C2Nc3ccccc3NC3=C2C(=O)CC(c2ccc(OC)c(OC)c2)C3)cc1` (stereo not drawn) the same measures were 83%, 71% and 3%.
For `COc1ccc(C2CC(=O)C3=C(C2)Nc2ccccc2NC3c2cccc(Oc3ccccc3)c2)cc1OC` (stereo not drawn) the same measures were 84%, 77% and 18%.
In the same order, the values of `CC1(C)CC(=O)C2=C(C1)Nc1ccccc1NC2c1ccc(-c2ccccc2)cc1` (stereo not drawn) are 66%, 69% and 7%.
In the case of `O=C1CC(c2ccccc2)CC2=C1C(c1c(F)cccc1Cl)Nc1ccccc1N2` (stereo not drawn), the survival was 73%. Under setting [1], this molecule gave a survival of 72%. The molecule further had a survival under setting [2] of 3%.
In the same order, the values of `COc1ccc(C2CC(=O)C3=C(C2)Nc2ccccc2NC3c2cccc(C(F)(F)F)c2)cc1OC` (stereo not drawn) are 86%, 75% and 8%.
`COc1ccc(C2CC(=O)C3=C(C2)Nc2ccccc2NC3c2cccc(Br)c2)cc1OC` (stereo not drawn): the survival is 67%. The survival under setting [1] was 72%. Under setting [2], this molecule came in with a survival of 7%.
For `COc1ccc(C2CC(=O)C3=C(C2)Nc2ccccc2NC3c2cc(C)ccc2C)cc1` (stereo not drawn) the same measures were 83%, 72% and 9%.
In the same order, the values of `CCOc1cc(C2Nc3ccccc3NC3=C2C(=O)CC(c2ccc(OC)cc2)C3)cc(Cl)c1O` (stereo not drawn) are 30% (inactive), 71% and 2%.
For `COc1ccc(C2CC(=O)C3=C(C2)Nc2ccccc2NC3c2ccccc2C(F)(F)F)cc1OC` (stereo not drawn) the same measures were 98%, 89% and 7%.
As for `CSc1ccc(C2Nc3ccccc3NC3=C2C(=O)CC(c2ccccc2)C3)cc1` (stereo not drawn), the survival was 74%. This molecule also returned a survival under setting [1] of 72%. The molecule further showed a survival under setting [2] of 23%.
